From patent publication US7186861B2 (priority 2002, dated 2007)

System: Plasmopara viticola
Experiment: Activity against downy mildew of grapes caused by Plasmopara viticola (lasting effect, inoculation 7 days after spraying)
Type: in vivo
Conditions: 63 ppm active compound; potted vines Müller-Thurgau; inoculated 7 days after spraying; untreated plants 90% infected
Description: The active compounds were prepared, separately or together, as a 10% emulsion in a mixture of 70% by weight of cyclohexanone, 20% by weight of Nekanil® LN (Lutensol® AP6, wetting agent with an emulsifying and dispersing action based on ethoxylated alkylphenols) and 10% by weight of Wettol® EM (nonionic emulsifier based on ethoxylated castor oil) and were appropriately diluted with water to the desired concentration.
Leaves of potted vines of the variety “Müller-Thurgau” were sprayed to runoff point with an aqueous preparation of active compound prepared from a stock solution consisting of 10% of active compound, 85% of cyclohexanone and 5% of emulsifier. In order to be able to assess the lasting effects of the substances, the plants, after the spray coating had dried on, were placed in a greenhouse for 7 days. Only then were the leaves inoculated with an aqueous suspension of zoospores of Plasmopara viticola. The vines were then initially placed in a chamber saturated with water vapor at 24° C. for 48 hours and subsequently in a greenhouse at temperatures of between 20 and 30° C. for 5 days. After this period of time, the plants were once more placed in a humid chamber for 16 hours to accelerate the eruption of sporangiphores. The extent to which the infection had developed on the undersides of the leaves was then determined visually.

CC/C=C(/C(=O)NCCc1ccc(OCC)c(OC)c1)c1ccc(Cl)c(Cl)c1 [compound A]
infection: 40%

CCC=C(C(=O)NCCc1ccc(OCC)c(OC)c1)c1ccc(Cl)c(Cl)c1 [Compound I-44]
infection: 3%
